Patent US10081662B2, “Modified relaxin B chain peptides” (The Florey Institute of Neuroscience and Mental Health, priority 2014, dated 2018)
Square brackets hold non-standard residues; d marks the D form. Peptide text beside a SMILES is read from it. hArg = N=C(N)NCCCC[C@H](N)C(=O)O; Agb = N=C(N)NCC[C@H](N)C(=O)O

What was measured:
RXFP1 [1] = target: T1, RXFP1 (Homo sapiens, UniProt Q9HBX9); experiment: Eu-labelled H2 relaxin competition binding, whole HEK-293T cells stably transfected with RXFP1; settings: HEK-293T cells stably transfected with RXFP1; competition with Eu-labelled H2 relaxin; mean ± S.E; n ≥ 3; read-out: RXFP1 Eu-H2 pKi (converted)
T1 construct: expressed in transfected cells; host or cells: HEK-293T
T1 sequence (Q9HBX9 1-757): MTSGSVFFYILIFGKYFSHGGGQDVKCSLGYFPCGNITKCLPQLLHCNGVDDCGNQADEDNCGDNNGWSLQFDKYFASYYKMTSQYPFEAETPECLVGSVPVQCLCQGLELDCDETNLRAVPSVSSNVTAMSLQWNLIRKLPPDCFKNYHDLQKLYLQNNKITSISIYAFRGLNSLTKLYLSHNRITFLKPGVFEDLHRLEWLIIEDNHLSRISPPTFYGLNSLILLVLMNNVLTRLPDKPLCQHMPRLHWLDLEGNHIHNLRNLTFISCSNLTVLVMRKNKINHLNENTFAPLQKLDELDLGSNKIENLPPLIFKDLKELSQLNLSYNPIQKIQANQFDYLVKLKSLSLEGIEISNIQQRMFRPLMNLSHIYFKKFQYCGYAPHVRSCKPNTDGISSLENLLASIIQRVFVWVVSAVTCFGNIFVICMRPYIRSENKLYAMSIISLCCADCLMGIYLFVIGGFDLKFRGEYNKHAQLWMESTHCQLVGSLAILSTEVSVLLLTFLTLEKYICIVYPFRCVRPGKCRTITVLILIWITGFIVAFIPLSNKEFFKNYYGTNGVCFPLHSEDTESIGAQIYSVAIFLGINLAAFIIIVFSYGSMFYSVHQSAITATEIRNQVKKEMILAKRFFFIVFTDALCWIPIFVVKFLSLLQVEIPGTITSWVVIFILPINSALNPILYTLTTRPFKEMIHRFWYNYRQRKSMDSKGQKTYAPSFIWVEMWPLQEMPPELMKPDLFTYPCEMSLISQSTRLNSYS
Method: Human embryonic kidney (HEK-293T) cells stably transfected with RXFP1 were cultured in RPMI 1640 medium supplemented with 10% fetal calf serum, 100 μg/ml penicillin, 100 μg/ml streptomycin and 2 mM L-glutamine and plated into 96-well pre-coated with poly-L-lysine for whole cell binding assays. Competition binding experiments were conducted with Eu^3+-labelled H2 relaxin (as per Shabanpoor et al., 2012, Biochem Biophys Res Commun. 420, 253-256) in the absence or presence of increasing concentrations of unlabelled relaxin-2 B chain derivatives. Nonspecific binding was determined with an excess of unlabelled peptides (500 nM H2 relaxin). Fluorescent measurements were recorded at an excitation wavelength of 340 nm and emission of 614 nm on a Victor plate reader (Perkin-Elmer Inc.). […] Statistical differences in pIC50 values were analyzed using one-way analysis of variance coupled to Newman Keul's multiple comparison test for multiple group comparisons in GraphPad Prism 6.

RXFP1 [2] = target: T1, RXFP1; experiment: cAMP reporter gene assay (pCRE β-galactosidase) in HEK-293T cells transfected with RXFP1; type: cell-based; settings: HEK-293T cells co-transfected with RXFP1 and pCRE β-galactosidase reporter; n ≥ 3; read-out: RXFP1 cAMP pEC50 (converted)
Method: The ability of the relaxin-2 B chain peptide derivatives generated in Example 1 to stimulate cAMP response was also evaluated, using a cAMP reporter gene assay as described previously (Scott et al., 2006, J Biol Chem. 281, 34942-34954). HEK-293T cells co-transfected with either RXFP1 or RXFP2, or 7BP cells, and a pCRE β-galactosidase reporter plasmid were plated in 96-well plates. After 24 hours, the co-transfected cells were incubated with increasing concentrations of peptides in parallel to 10 nM of H2 relaxin or INSL3 for RXFP1- or RXFP2-transfected cells respectively. The amount of cAMP-driven β-galactosidase expression in each well was assessed with a colorimetric assay measuring absorbance at 570 nm on a microplate spectrophotometer. Ligand-induced cAMP stimulation was expressed as a percentage of maximal response of H2 relaxin or INSL3 for RXFP1 and RXFP2 cells respectively. Each data point was measured in triplicate and each experiment conducted independently at least three separate times. Statistical differences in pEC50 values were analyzed using one-way ANOVA coupled to Newman Keul's multiple comparison test for multiple group comparisons in GraphPad Prism 6.

[3] = target: T2, fusion protein comprising the extracellular domain of RXFP1 and the transmembrane domain of CD8 (7BP cells) (Homo sapiens, UniProt Q9HBX9); experiment: Eu-labelled H2 relaxin competition binding to 7BP cells; settings: 7BP cells; lower affinity than H2 relaxin; FIG. 2B
T2 construct: the extracellular domain of RXFP1 and the transmembrane domain of CD8; expressed in transfected cells
T2 sequence (Q9HBX9 1-409 limits assumed): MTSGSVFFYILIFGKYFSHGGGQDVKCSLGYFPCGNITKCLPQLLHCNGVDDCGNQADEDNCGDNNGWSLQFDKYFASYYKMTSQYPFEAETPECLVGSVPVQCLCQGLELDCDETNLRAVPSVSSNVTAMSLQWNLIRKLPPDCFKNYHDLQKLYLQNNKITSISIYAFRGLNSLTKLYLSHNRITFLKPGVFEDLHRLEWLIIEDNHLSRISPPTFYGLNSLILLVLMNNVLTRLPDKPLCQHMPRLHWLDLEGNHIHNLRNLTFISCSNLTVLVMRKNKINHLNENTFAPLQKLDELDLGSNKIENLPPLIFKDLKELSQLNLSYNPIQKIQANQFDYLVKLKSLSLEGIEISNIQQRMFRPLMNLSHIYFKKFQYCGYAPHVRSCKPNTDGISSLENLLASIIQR

**Q.** For `CC[C@H](C)[C@H](NC(=O)[C@H](C)NC(=O)[C@@H](NC(=O)[C@H](CCC(N)=O)NC(=O)[C@H](C)NC(=O)[C@H](CCCNC(=N)N)NC(=O)[C@@H](NC(=O)[C@H](CC(C)C)NC(=O)[C@H](CCC(=O)O)NC(=O)[C@H](CCCNC(=N)N)NC(=O)CNC(=O)[C@H](CO)NC(=O)[C@H](CC(C)C)NC(=O)[C@H](CCCCN)NC(=O)[C@@H](NC(=O)[C@@H](N)C(C)C)[C@@H](C)CC)C(C)C)[C@@H](C)CC)C(=O)N[C@@H](CO)C(=O)NCC(=O)N[C@@H](CCSC)C(=O)N[C@@H](CO)C(=O)N[C@H](C(=O)N[C@@H](Cc1c[nH]c2ccccc12)C(=O)N[C@@H](CO)C(N)=O)[C@@H](C)O` [B7-29 C11.23S] (H-VIKLSGRELVRAQIAISGMSTWS-NH2; N-terminus assumed), which Ki (RXFP1 [1]) is on record?
**A.** Its Ki is over 10 µM.

**Q.** And the EC50 (RXFP1 [2])?
**A.** Its EC50 is over 10 µM.

**Q.** What does the source list for `CC[C@H](C)[C@H](NC(=O)[C@H](C)NC(=O)[C@@H](NC(=O)[C@H](CCC(N)=O)NC(=O)[C@H](C)NC(=O)[C@H](CCCNC(=N)N)NC(=O)[C@@H](NC(=O)[C@H](CC(C)C)NC(=O)[C@H](CCC(=O)O)NC(=O)[C@H](CCCNC(=N)N)NC(=O)CNC(=O)[C@H](CO)NC(=O)[C@H](CC(C)C)NC(=O)[C@H](CCCCN)NC(=O)[C@@H](NC(=O)[C@@H](NC(=O)[C@H](CCC(=O)O)NC(=O)[C@H](CCC(=O)O)NC(=O)[C@H](CCSC)NC(=O)[C@H](Cc1c[nH]c2ccccc12)NC(=O)[C@H](CO)NC(=O)[C@@H](N)CC(=O)O)C(C)C)[C@@H](C)CC)C(C)C)[C@@H](C)CC)C(=O)N[C@@H](CO)C(=O)NCC(=O)N[C@@H](CCSC)C(=O)N[C@@H](CO)C(=O)N[C@H](C(=O)N[C@@H](Cc1c[nH]c2ccccc12)C(=O)N[C@@H](CO)C(=O)N[C@@H](CCCCN)C(=O)N[C@@H](CCCNC(=N)N)C(=O)N[C@@H](CO)C(=O)N[C@@H](CC(C)C)C(N)=O)[C@@H](C)O` [B1-33 C11.23S] (H-DSWMEEVIKLSGRELVRAQIAISGMSTWSKRSL-NH2)?
**A.** Ki (RXFP1 [1]): 4.68 µM; EC50 (RXFP1 [2]): 7.94 µM

**Q.** Which results are given for `CC[C@H](C)[C@H](NC(=O)[C@H](C)NC(=O)[C@@H](NC(=O)[C@H](CCC(N)=O)NC(=O)[C@H](C)NC(=O)[C@H](CCCCN)NC(=O)[C@@H](NC(=O)[C@H](CC(C)C)NC(=O)[C@H](CCC(=O)O)NC(=O)[C@H](CCCNC(=N)N)NC(=O)CNC(=O)[C@H](CO)NC(=O)[C@H](CC(C)C)NC(=O)[C@H](CCCCN)NC(=O)[C@@H](NC(=O)[C@@H](N)C(C)C)[C@@H](C)CC)C(C)C)[C@@H](C)CC)C(=O)N[C@@H](CO)C(=O)NCC(=O)N[C@@H](CCSC)C(=O)N[C@@H](CO)C(=O)N[C@H](C(=O)N[C@@H](Cc1c[nH]c2ccccc12)C(=O)N[C@@H](CO)C(=O)N[C@@H](CCCCN)C(=O)N[C@@H](CCCNC(=N)N)C(=O)N[C@@H](CO)C(=O)N[C@@H](CC(C)C)C(N)=O)[C@@H](C)O` [B7-33 C11.23S R17K] (H-VIKLSGRELVKAQIAISGMSTWSKRSL-NH2; N-terminus assumed)?
**A.** Ki (RXFP1 [1]): > 10 µM; EC50 (RXFP1 [2]): > 10 µM

**Q.** For “VIKLCGRELVRAQIAICGMSTWSKRSL-NH2 [Native B7-33]”, which “Binding to 7BP cells (in words)” value [3] is on record?
**A.** Its value is “strongly bind to 7BP cells”.

**Q.** Which results are given for `CC[C@H](C)[C@H](NC(=O)[C@H](C)NC(=O)[C@@H](NC(=O)[C@H](CCC(N)=O)NC(=O)[C@H](C)NC(=O)[C@H](CCCCNC(=N)N)NC(=O)[C@@H](NC(=O)[C@H](CC(C)C)NC(=O)[C@H](CCC(=O)O)NC(=O)[C@H](CCCNC(=N)N)NC(=O)CNC(=O)[C@H](CO)NC(=O)[C@H](CC(C)C)NC(=O)[C@H](CCCCN)NC(=O)[C@@H](NC(=O)[C@@H](N)C(C)C)[C@@H](C)CC)C(C)C)[C@@H](C)CC)C(=O)N[C@@H](CO)C(=O)NCC(=O)N[C@@H](CCSC)C(=O)N[C@@H](CO)C(=O)N[C@H](C(=O)N[C@@H](Cc1c[nH]c2ccccc12)C(=O)N[C@@H](CO)C(=O)N[C@@H](CCCCN)C(=O)N[C@@H](CCCNC(=N)N)C(=O)N[C@@H](CO)C(=O)N[C@@H](CC(C)C)C(N)=O)[C@@H](C)O` [B7-33 C11.23S R17HR] (H-VIKLSGRELV[hArg]AQIAISGMSTWSKRSL-NH2)?
**A.** Ki (RXFP1 [1]): 0.302 µM; EC50 (RXFP1 [2]): > 10 µM

**Q.** `CC[C@H](C)[C@H](NC(=O)[C@H](C)NC(=O)[C@H](C)NC(=O)[C@H](CCC(N)=O)NC(=O)[C@H](C)NC(=O)[C@H](CCCNC(=N)N)NC(=O)[C@@H](NC(=O)[C@H](CC(C)C)NC(=O)[C@H](CCC(=O)O)NC(=O)[C@H](CCCNC(=N)N)NC(=O)CNC(=O)[C@H](CO)NC(=O)[C@H](CC(C)C)NC(=O)[C@H](CCCCN)NC(=O)[C@@H](NC(=O)[C@@H](NC(C)=O)C(C)C)[C@@H](C)CC)C(C)C)C(=O)N[C@@H](CO)C(=O)NCC(=O)N[C@@H](CCSC)C(=O)N[C@@H](CO)C(=O)N[C@H](C(=O)N[C@@H](Cc1c[nH]c2ccccc12)C(=O)N[C@@H](CO)C(=O)N[C@@H](CCCCN)C(=O)N[C@@H](CCCNC(=N)N)C(=O)N[C@@H](CO)C(=O)N[C@@H](CC(C)C)C(N)=O)[C@@H](C)O` [R20A (AcB7-33 C11.23S)] (Ac-VIKLSGRELVRAQAAISGMSTWSKRSL-NH2) was tested. Which Ki (RXFP1 [1]) did it give?
**A.** Its Ki is over 10 µM.

**Q.** And the EC50 (RXFP1 [2])?
**A.** The EC50 was over 10 µM.

**Q.** Which Ki (RXFP1 [1]) does the source give for `CC[C@H](C)[C@H](NC(=O)[C@H](C)NC(=O)[C@@H](NC(=O)[C@H](CCC(N)=O)NC(=O)[C@H](C)NC(=O)[C@H](CCNC(=N)N)NC(=O)[C@@H](NC(=O)[C@H](CC(C)C)NC(=O)[C@H](CCC(=O)O)NC(=O)[C@H](CCCNC(=N)N)NC(=O)CNC(=O)[C@H](CO)NC(=O)[C@H](CC(C)C)NC(=O)[C@H](CCCCN)NC(=O)[C@@H](NC(=O)[C@@H](N)C(C)C)[C@@H](C)CC)C(C)C)[C@@H](C)CC)C(=O)N[C@@H](CO)C(=O)NCC(=O)N[C@@H](CCSC)C(=O)N[C@@H](CO)C(=O)N[C@H](C(=O)N[C@@H](Cc1c[nH]c2ccccc12)C(=O)N[C@@H](CO)C(=O)N[C@@H](CCCCN)C(=O)N[C@@H](CCCNC(=N)N)C(=O)N[C@@H](CO)C(=O)N[C@@H](CC(C)C)C(N)=O)[C@@H](C)O` [B7-33 C11.23S R17NR] (H-VIKLSGRELV[Agb]AQIAISGMSTWSKRSL-NH2) here?
**A.** Its Ki is over 10 µM.

**Q.** And the EC50 (RXFP1 [2])?
**A.** The EC50 was 1.55 µM.
